Where a name gives a salt, the structure may show the parent alone.

Regarding `O=C(O)C[C@@H](c1ccccc1)c1c[nH]c2cc(OCCCNc3ccccn3)ccc12` (as salt: salt) [compound 46, (3S)-3-Phenyl-3-{6-[3-(pyridin-2-ylamino)propoxy]indol-3-yl}propionic acid], the melting point (as a rule, the temperature of the solid-liquid transition) turned out to be 137 °C. Next, `O=C(O)CC(c1ccccc1)c1c[nH]c2cc(OCCCNc3ccccn3)ccc12` (centres unmarked) (as salt: trifluoroacetate) [compound 8, 3-Phenyl-3-{6-[3-(pyridin-2-ylamino)propoxy]indol-3-yl}propionic acid]: 232 °C (dec.).

The values above are taken from patent US6743810B2, “Indol-3-yl derivatives” (Merck Patent GmbH, priority 2000, dated 2004).
